According to patent US6916797B2, “α-arylethylpiperazine derivatives as neurokinin antagonists” (UCB, S.A., priority 2000, dated 2005):

The compounds below were run against NK1 receptors (Homo sapiens, UniProt P25103) (assay: Binding of [4,5-3H-Leu10] substance P to human recombinant NK1 receptors expressed in CHO cell membranes). Conditions: pIC50 = -log IC50, concentration inhibiting by 50% the specific binding of [4,5-3H] substance P; tested as the free base/salt given in c1.
Design: host or cells: CHO cells
Procedure: The following test was designed to assess the affinity of test substances for human recombinant NK1 receptors expressed in Chinese Hamster Ovarian (CHO) cells.
CHO cells expressing the human recombinant NK1 receptor are used. The cells were obtained from Euroscreen (Brussels, Belgium).
Cells expressing the human NK1 receptor are routinely cultured in 175 cm2 flasks containing 75 ml of medium F12 (Ham) enriched with 2 mmol/l L-glutamine, 100 IU/ml penicilline, 100 μg/ml streptomycine, 1% sodium pyruvate, 2.5 μg/ml fungizone amphotericin B, 400 μg/ml geneticin and supplemented with 10% foetal calf serum. […] When subcultured, the cells are seeded at a concentration of 50,000 cells/cm2.
Confluent cells are gently scraped and resuspended in 25 ml of phosphate buffered saline without calcium and magnesium. The cellular suspension is centrifuged at 1500×g for 3 min (4° C.). The cell pellet is homogenized in a 15 mmol/l Tris-HCl (pH 7.5) buffer, 2 mmol/l MgCl2, 0.3 mmol/l EDTA, 1 mmol/l EGTA. The crude membrane fraction is collected by two consecutive centrifugation steps at 40,000×g for 25 min (4° C.). The final pellet is resuspended in 20 mmol/l Tris-HCl (pH 7.4), 250 mmol/l sucrose buffer at a protein concentration ranging from 2 to 6 mg/ml and stored in liquid nitrogen. • 1.2.2. Test Design
The inhibition constant (Ki) is determined using increasing concentrations of the test substance. The concentration range usually encompasses 6 log units with variable steps (0.3 to 1 log). Assays are performed in mono- or duplicate.
Membranes are incubated at 25° C. for 60 min in 0.5 ml of a 50 mmol/l Tris-HCl buffer (pH 7.4) containing 2 mmol/l MgCl2, 100 μg/ml bacitracine, 0.1 to 0.4×10^−9 mol/l of [4,5^3H-Leu^10] substance P (specific activity>100 Ci/mmol) and increasing concentrations of the test substance. […] Membrane-bound and free radioligands are separated by rapid filtration through glass fiber filters (equivalent to Whatman GF/C or GF/B; VEL, Belgium) presoaked in 0.1% polyethyleneimine to reduce non specific binding. Samples and filters are rinsed by at least 6 ml of 50 mmol/l Tris-HCl (pH 7.4) buffer.
Initial values for the different variables may be provided by the experimenter.

NK1 receptors, sequence (P25103 whole entry): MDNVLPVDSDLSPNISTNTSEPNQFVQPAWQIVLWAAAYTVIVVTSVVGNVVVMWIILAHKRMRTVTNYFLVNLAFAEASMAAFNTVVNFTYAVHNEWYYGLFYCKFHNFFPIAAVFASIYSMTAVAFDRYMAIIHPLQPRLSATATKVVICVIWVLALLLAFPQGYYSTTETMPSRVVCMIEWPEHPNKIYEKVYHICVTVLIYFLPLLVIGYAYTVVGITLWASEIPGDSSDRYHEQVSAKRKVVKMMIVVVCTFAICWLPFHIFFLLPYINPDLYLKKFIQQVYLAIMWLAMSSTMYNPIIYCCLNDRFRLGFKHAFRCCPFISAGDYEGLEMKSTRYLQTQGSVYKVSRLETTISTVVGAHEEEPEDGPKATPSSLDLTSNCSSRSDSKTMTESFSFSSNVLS

In order of rising IC50:
1. NC(=O)CCCCCN1CCN(C(COCc2cc(C(F)(F)F)cc(C(F)(F)F)c2)c2ccccc2)CC1 (racemic) [Compound 150]  5.01 nM
2. COc1cc(COCCN2CCN(C(COCc3cc(C(F)(F)F)cc(C(F)(F)F)c3)c3ccccc3)CC2)cc(OC)c1OC (racemic) [Compound 175]  5.01 nM
3. NC(=O)CCCN1CCN(C(COCc2cc(C(F)(F)F)cc(C(F)(F)F)c2)c2ccccc2)CC1 (stereo not drawn) [Compound 288, 4-{4-[2-(3,5-Bis-trifluoromethyl-benzyloxy)-1-phenyl-ethyl]-piperazin-1-yl}-butyramide]  5.01 nM
4. O=C(CCCCCN1CCN(C(COCc2cc(C(F)(F)F)cc(C(F)(F)F)c2)c2ccccc2)CC1)NO (stereo not drawn) [Compound 315, 6-{4-[2-(3,5-Bis-trifluoromethyl-benzyloxy)-1-phenyl-ethyl]-piperazin-1-yl}-hexanoic acid hydroxyamide]  5.01 nM
5. COC(=O)CCCCN1CCN(C(COCc2cc(C(F)(F)F)cc(C(F)(F)F)c2)c2ccccc2)CC1 (racemic) [Compound 139]  6.31 nM
6. OCCN1CCN(C(COCc2cc(C(F)(F)F)cc(C(F)(F)F)c2)c2ccccc2)CC1 (racemic) [Compound 157, 2-{4-[2-(3,5-Bis-trifluoromethyl-benzyloxy)-1-phenyl-ethyl]-piperazin-1-yl}-ethanol]  6.31 nM
7. CCOC(=O)CCCCCN1CCN(C(COCc2cc(C(F)(F)F)cc(C(F)(F)F)c2)c2ccccc2)CC1 (racemic) [Compound 141]  7.94 nM
8. CC(C)OC(=O)CCCCCN1CCN(C(COCc2cc(C(F)(F)F)cc(C(F)(F)F)c2)c2ccccc2)CC1 (racemic) [Compound 142]  7.94 nM
9. N#CCCCCCN1CCN(C(COCc2cc(C(F)(F)F)cc(C(F)(F)F)c2)c2ccccc2)CC1 (racemic) [Compound 156]  7.94 nM
10. O=S1(=O)CCN(CCN2CCN(C(COCc3cc(C(F)(F)F)cc(C(F)(F)F)c3)c3ccccc3)CC2)CC1 (racemic) [Compound 161]  7.94 nM
11. FC(F)(F)c1cc(COCC(c2ccccc2)N2CCN(CCN3CCOCC3)CC2)cc(C(F)(F)F)c1 (racemic) [Compound 162]  7.94 nM
12. OCCOCCN1CCN([C@H](COCc2cc(C(F)(F)F)cc(C(F)(F)F)c2)c2ccccc2)CC1 [Compound 158]  7.94 nM
13. CCOC(=O)CCCN1CCN(C(COCc2cc(C(F)(F)F)cc(C(F)(F)F)c2)c2ccccc2)CC1 (racemic) [Compound 138, 4-{4-[2-(3,5-Bis-trifluoromethyl-benzyloxy)-1-phenyl-ethyl]-piperazin-1-yl}-butyric acid ethyl ester]  10 nM
14. NC(=O)COCCN1CCN(C(COCc2cc(C(F)(F)F)cc(C(F)(F)F)c2)c2ccccc2)CC1 (racemic) [Compound 147]  10 nM
15. N#CCCCCN1CCN(C(COCc2cc(C(F)(F)F)cc(C(F)(F)F)c2)c2ccccc2)CC1 (racemic) [Compound 152]  12.6 nM
16. CN(C(=O)CN1CCN(C(COCc2cc(C(F)(F)F)cc(C(F)(F)F)c2)c2ccccc2)CC1)C(C)(C)C (racemic) [Compound 294]  12.6 nM
17. CC(=O)NC(CCN1CCN(C(COCc2cc(C(F)(F)F)cc(C(F)(F)F)c2)c2ccccc2)CC1)c1ccccc1 (stereo not drawn) [Compound 308, N-(3-{4-[2-(3,5-Bis-trifluoromethyl-benzyloxy)-1-phenyl-ethyl]-piperazin-1-yl}-1-phenyl-propyl)-acetamide]  12.6 nM
18. N#CCOCCN1CCN(C(COCc2cc(C(F)(F)F)cc(C(F)(F)F)c2)c2ccccc2)CC1 (racemic) [Compound 155]  15.8 nM
19. NC(=O)CCN1CCN(C(COCc2cc(C(F)(F)F)cc(C(F)(F)F)c2)c2ccccc2)CC1 (stereo not drawn) [Compound 146]  15.8 nM
20. N#CCCCN1CCN(C(COCc2cc(C(F)(F)F)cc(C(F)(F)F)c2)c2ccccc2)CC1 (racemic) [Compound 151]  20 nM
21. COc1cc(CN2CCN([C@H](COCc3cc(C(F)(F)F)cc(C(F)(F)F)c3)c3ccccc3)CC2)cc(OC)c1OC [Compound 173]  25.1 nM
22. COc1cc(COCCN2CCN(C(COCc3cc(C(F)(F)F)cc(C(F)(F)F)c3)c3ccccc3)CC2)cc(OC)c1OC (stereo not drawn) [Compound 176]  25.1 nM
23. NC(=O)CN1CCN([C@@H](COCc2cc(C(F)(F)F)cc(C(F)(F)F)c2)c2ccccc2)CC1 [Compound 145]  31.6 nM
24. O=C(O)C(c1ccccc1)N1CCN([C@H](COCc2cc(C(F)(F)F)cc(C(F)(F)F)c2)c2ccccc2)CC1 (mixture of isomers) [Compound 244]  39.8 nM
25. NC(=O)CN1CCN(C(COCc2cc(C(F)(F)F)cc(C(F)(F)F)c2)c2ccccc2)CC1 (stereo not drawn) [Compound 143]  39.8 nM
26. NC(=O)CN1CCN([C@H](COCc2cc(C(F)(F)F)cc(C(F)(F)F)c2)c2ccccc2)CC1 [Compound 144, (S)-2-{4-[2-(3,5-Bis-trifluoromethyl-benzyloxy)-1-phenyl-ethyl]-piperazin-1-yl}-acetamide]  39.8 nM
27. NC(=O)COCCN1CCN([C@H](COCc2cc(C(F)(F)F)cc(C(F)(F)F)c2)c2ccccc2)CC1 [Compound 148]  39.8 nM
28. CCOP(=O)(CCN1CCN([C@H](COCc2cc(C(F)(F)F)cc(C(F)(F)F)c2)c2ccccc2)CC1)OCC [Compound 164]  39.8 nM
29. COc1cc(CN2CCN([C@@H](COCc3cc(C(F)(F)F)cc(C(F)(F)F)c3)c3ccccc3)CC2)cc(OC)c1OC [Compound 174]  39.8 nM
30. FC(F)(F)c1cc(COCC(c2ccccc2)N2CCN(c3ccnc4ccccc34)CC2)cc(C(F)(F)F)c1 (stereo not drawn) [Compound 227]  39.8 nM
31. FC(F)(F)c1cc(COCC(c2ccccc2)N2CCN(Cc3ccccn3)CC2)cc(C(F)(F)F)c1 (racemic) [Compound 170]  50.1 nM
32. NC(=O)CN1CCN(C(COCc2cc(C(F)(F)F)cc(C(F)(F)F)c2)c2cccc3ccccc23)CC1 (racemic) [Compound 191]  63.1 nM
33. COC(=O)CN1CCN(C(COCc2cc(Br)cc(I)c2)c2ccccc2)CC1 (racemic) [Compound 208]  63.1 nM
34. CC(C)(C)NC(=O)CN1CCN(C(COCc2cc(C(F)(F)F)cc(C(F)(F)F)c2)c2ccccc2)CC1 (racemic) [Compound 293]  63.1 nM
35. NC(=O)COCCN1CCN([C@@H](COCc2cc(C(F)(F)F)cc(C(F)(F)F)c2)c2ccccc2)CC1 [Compound 149]  63.1 nM
36. O=C1c2ccccc2C(=O)N1CCN1CCN(C(COCc2cc(C(F)(F)F)cc(C(F)(F)F)c2)c2ccccc2)CC1 (racemic) [Compound 171]  79.4 nM
37. CC(C)OC(=O)CN1CCN([C@H](COCc2cc(C(F)(F)F)cc(C(F)(F)F)c2)c2ccccc2)CC1 [Compound 136]  79.4 nM

The compounds below were run on verapamil binding site of the L-type calcium channel (assay: Inhibition of [3H]D888 binding to the verapamil binding site of the L-type calcium channel (rat cerebral cortex membranes)). Conditions: 10 μmol/l of test substance.
Procedure: 200-250 g male Sprague-Dawley rats are sacrificed by decapitation. Cerebral cortices are quickly dissected on ice and homogenized in a 20 mmol/l Tris-HCl (pH 7.4) buffer containing 250 mmol/l sucrose (buffer A). The homogenate is centrifuged at 30,000 g for 15 min at 4° C. The resulting crude membrane pellet is resuspended in a 50 mmol/l Tris-HCl (pH 7.4) buffer and incubated 15 min at 37° C. before being centrifuged at 30,000×g for 15 min at 4° C. After two more washes under the same conditions, the final pellet is resuspended in buffer A at a protein concentration ranging from 15 to 25 mg/ml and stored in liquid nitrogen.
Binding experiments are essentially performed according to Reynolds J. et al., J. Pharmacol. Exp. Ther. (1986), 237, 731-738. (1986) with slight modifications.
Membranes (120-175 μg/assay) are incubated at 25° C. for 60 min in 0.5 ml of a 50 mmol/l Tris-HCl buffer (pH 7.4) containing 2 mmol/l MgCl2, 0.2 to 0.4×10-9 mol/l of [^3H]D888 (85 Ci/mmol; Amersham, Belgium) and 10 μmol/l of the test substance. The non specific binding (NSB) is defined as the residual binding observed in the presence 10 μM verapamil. Membrane-bound and -free radioligands are separated by rapid filtration through glass fiber filters (equivalent to Whatman GF/C or GF/B; VEL, Belgium) presoaked in 0.1% polyethyleneimine to reduce non specific binding. Samples and filters are rinsed by at least 6 ml of 50 mmol/l Tris-HCl (pH 7.4) buffer. […] The radioactivity trapped onto the filters is counted by liquid scintillation in a β-counter.
The inhibition of the radioligand specific binding is calculated as follows: [formula] • where BI and Bo represent the binding observed in the presence and absence of the test substance respectively; and • BNS is the non specific binding.
Data analysis is performed by a computerized non linear curve fitting method using a set of equations describing several binding models assuming competitive interactions between ligands (Weiland G. A. and P. B. Molinoff Life Science (1981), 29, 313-330; Molinoff P. et al. (1981) Life Sci., 29, 427-443).

`O=C(O)C(c1ccccc1)N1CCN([C@H](COCc2cc(C(F)(F)F)cc(C(F)(F)F)c2)c2ccccc2)CC1` (mixture of isomers) [Compound 244] was tested, and the “% inhibition of [3H]D888 binding to the verapamil binding site of the L-type calcium channel” value was “−+ (+: inhibition comprised between 20 and 50%)”.
In the case of `N#Cc1ccc(C(COCc2cc(C(F)(F)F)cc(C(F)(F)F)c2)N2CCN(CC(=O)O)CC2)cc1` (stereo not drawn) [Compound 320, {4-[2-(3,5-Bis-trifluoromethyl-benzyloxy)-1-(4-cyano-phenyl)-ethyl]-piperazin-1-yl}-acetic acid], the “% inhibition of [3H]D888 binding to the verapamil binding site of the L-type calcium channel” value is reported as 0 (0: inhibition < 20%).
